System: 192522-019-R-J2-PDC complex tumor spheroid viability
Assay: Anticancer human tumor 192522-019-R-J2-PDC patient-derived colon adenocarcinoma cell line growth inhibition [POLQ]
Settings: for IC50: curve of first compound; for viability, T/C: stronger effect = lower value
Summary of the method: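 PDC + HUVEC + MSC complex spheroids; POLQ inhibitors ± partner drugs; top conc. at/near clinical Cmax, else 10 microM (SN-38 1 microM), half-log dilutions; 37 degrees C, 5% CO2.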
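Also: spheroids exposed to drugs for seven days before reading.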
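For viability, T/C in this document: 100% = DMSO vehicle control viability in luminescence.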

Compound CCc1c2c(nc3ccc(O)cc13)-c1cc3c(c(=O)n1C2)COC(=O)[C@]3(O)CC + Cc1cccc(N(C)C(=O)C2C(O)CCN2c2nc(C)cc(C(F)(F)F)c2C#N)c1 has an IC50 (second compound 0.0316 µM) of 131 nM, an IC50 (second compound 0.1 µM) of 136 nM and an IC50 (second compound 0.316 µM) of 158 nM. The IC50 (second compound 1 µM) was 229 nM, the IC50 (second compound 3.16 µM) was 234 nM and the IC50 (second compound 10 µM) was 112 nM. The viability, T/C (second compound 0.0316 µM, first compound 0.00316 µM) was 95.4%, the viability, T/C (second compound 0.0316 µM, first compound 0.01 µM) was 63.6% and the viability, T/C (second compound 0.0316 µM, first compound 0.0316 µM) was 72.2%. For the same compound, the viability, T/C (second compound 0.0316 µM, first compound 0.1 µM) was 53.6%, the viability, T/C (second compound 0.0316 µM, first compound 0.316 µM) was 40.3% and the viability, T/C (second compound 0.0316 µM, first compound 1 µM) was 31.1%. The viability, T/C (second compound 0.1 µM, first compound 0.00316 µM) was 91.5%, the viability, T/C (second compound 0.1 µM, first compound 0.01 µM) was 66.2% and the viability, T/C (second compound 0.1 µM, first compound 0.0316 µM) was 75.8%. It also gave a viability, T/C (second compound 0.1 µM, first compound 0.1 µM) of 52.3%, a viability, T/C (second compound 0.1 µM, first compound 0.316 µM) of 36.7% and a viability, T/C (second compound 0.1 µM, first compound 1 µM) of 33.5%. For the same compound, the viability, T/C (second compound 0.316 µM, first compound 0.00316 µM) was 104%, the viability, T/C (second compound 0.316 µM, first compound 0.01 µM) was 72.8% and the viability, T/C (second compound 0.316 µM, first compound 0.0316 µM) was 70.5%. It also gave a viability, T/C (second compound 0.316 µM, first compound 0.1 µM) of 60.7%, a viability, T/C (second compound 0.316 µM, first compound 0.316 µM) of 38.8% and a viability, T/C (second compound 0.316 µM, first compound 1 µM) of 33.9%. The viability, T/C (second compound 1 µM, first compound 0.00316 µM) was 95.1%, the viability, T/C (second compound 1 µM, first compound 0.01 µM) was 78.1% and the viability, T/C (second compound 1 µM, first compound 0.0316 µM) was 71.9%. For the same compound, the viability, T/C (second compound 1 µM, first compound 0.1 µM) was 61%, the viability, T/C (second compound 1 µM, first compound 0.316 µM) was 44.5% and the viability, T/C (second compound 1 µM, first compound 1 µM) was 35%. It also gave a viability, T/C (second compound 3.16 µM, first compound 0.00316 µM) of 101%, a viability, T/C (second compound 3.16 µM, first compound 0.01 µM) of 82.6% and a viability, T/C (second compound 3.16 µM, first compound 0.0316 µM) of 79.1%. It also gave a viability, T/C (second compound 3.16 µM, first compound 0.1 µM) of 57.3%, a viability, T/C (second compound 3.16 µM, first compound 0.316 µM) of 45.8% and a viability, T/C (second compound 3.16 µM, first compound 1 µM) of 36.4%. It also gave a viability, T/C (second compound 10 µM, first compound 0.00316 µM) of 97.6%, a viability, T/C (second compound 10 µM, first compound 0.01 µM) of 69.4% and a viability, T/C (second compound 10 µM, first compound 0.0316 µM) of 68.8%. The viability, T/C (second compound 10 µM, first compound 0.1 µM) was 49.4%, the viability, T/C (second compound 10 µM, first compound 0.316 µM) was 42.6% and the viability, T/C (second compound 10 µM, first compound 1 µM) was 36.5%.

— PubChem BioAssay AID1963850 (Molecular Pharmacology Branch, DTP, NCI, 2024)
